Laboratory results from ChEMBL document CHEMBL2150993, “Substituted thiazoles VII. Synthesis and antitumor activity of certain 2-(substituted amino)-4-phenyl-1,3-thiazole analogs” (2012).

Experiments:
Format in all cases: functional
Conditions in all cases: at 10 µM
[1] = Growth inhibition of human NCI-322M cells after 48 hrs by cell counting analysis
[2] = system: UO-31; test: Growth inhibition of human UO31 cells after 48 hrs by cell counting analysis
[3] = system: MDA-MB-435; test: Growth inhibition of human MDA-MB-435 cells after 48 hrs by cell counting analysis
[4] = system: NCI-H23; test: Growth inhibition of human NCI-H23 cells after 48 hrs by cell counting analysis
[5] = system: M14; test: Growth inhibition of human M14 cells after 48 hrs by cell counting analysis
[6] = system: U-251; test: Growth inhibition of human U251 cells after 48 hrs by cell counting analysis
[7] = system: HT-29; test: Growth inhibition of human HT-29 cells after 48 hrs by cell counting analysis
[8] = system: A549; test: Growth inhibition of human A549 cells after 48 hrs by cell counting analysis
[9] = system: CAKI-1; test: Growth inhibition of human Caki1 cells after 48 hrs by cell counting analysis
[10] = system: HOP-62; test: Growth inhibition of human HOP62 cells after 48 hrs by cell counting analysis
[11] = system: MOLT-4; test: Growth inhibition of human MOLT4 cells after 48 hrs by cell counting analysis
[12] = system: TK-10; test: Growth inhibition of human TK10 cells after 48 hrs by cell counting analysis
[13] = system: OVCAR-3; test: Growth inhibition of human OVCAR3 cells after 48 hrs by cell counting analysis
[14] = system: OVCAR-4; test: Growth inhibition of human OVCAR4 cells after 48 hrs by cell counting analysis
[15] = system: LOX IMVI; test: Growth inhibition of human LOXIMVI cells after 48 hrs by cell counting analysis
[16] = system: HOP-92; test: Growth inhibition of human HOP92 cells after 48 hrs by cell counting analysis
[17] = system: SK-MEL-28; test: Growth inhibition of human SK-MEL-28 cells after 48 hrs by cell counting analysis
[18] = system: IGROV-1; test: Growth inhibition of human IGROV1 cells after 48 hrs by cell counting analysis
[19] = system: KM12; test: Growth inhibition of human KM12 cells after 48 hrs by cell counting analysis
[20] = system: SF-539; test: Growth inhibition of human SF539 cells after 48 hrs by cell counting analysis
[21] = system: RXF 393; test: Growth inhibition of human RXF393 cells after 48 hrs by cell counting analysis
[22] = system: OVCAR-8; test: Growth inhibition of human OVCAR8 cells after 48 hrs by cell counting analysis
[23] = system: CCRF-CEM; test: Growth inhibition of human CCRF-CEM cells after 48 hrs by cell counting analysis
[24] = system: SK-OV-3; test: Growth inhibition of human SKOV3 cells after 48 hrs by cell counting analysis
[25] = system: OVCAR-5; test: Growth inhibition of human OVCAR5 cells after 48 hrs by cell counting analysis
[26] = system: SR; test: Growth inhibition of human SR cells after 48 hrs by cell counting analysis
[27] = system: PC-3; test: Growth inhibition of human PC3 cells after 48 hrs by cell counting analysis
[28] = system: HCT-116; test: Growth inhibition of human HCT116 cells after 48 hrs by cell counting analysis
[29] = system: K562; test: Growth inhibition of human K562 cells after 48 hrs by cell counting analysis
[30] = Growth inhibition of human NCI-ADR-RES cells after 48 hrs by cell counting analysis
[31] = system: UACC-62; test: Growth inhibition of human UACC62 cells after 48 hrs by cell counting analysis
[32] = system: UACC-257; test: Growth inhibition of human UACC257 cells after 48 hrs by cell counting analysis
[33] = system: T47D; test: Growth inhibition of human T47D cells after 48 hrs by cell counting analysis
[34] = system: HCC 2998; test: Growth inhibition of human HCC2998 cells after 48 hrs by cell counting analysis
[35] = system: SF-295; test: Growth inhibition of human SF295 cells after 48 hrs by cell counting analysis
[36] = system: SNB-75; test: Growth inhibition of human SNB75 cells after 48 hrs by cell counting analysis
[37] = system: EKVX; test: Growth inhibition of human EKVX cells after 48 hrs by cell counting analysis
[38] = system: HCT-15; test: Growth inhibition of human HCT15 cells after 48 hrs by cell counting analysis
[39] = system: MDA-MB-231; test: Growth inhibition of human MDA-MB-231 cells after 48 hrs by cell counting analysis
[40] = system: SK-MEL-2; test: Growth inhibition of human SK-MEL-2 cells after 48 hrs by cell counting analysis
[41] = system: SN12C; test: Growth inhibition of human SN12C cells after 48 hrs by cell counting analysis
[42] = system: NCI-H226; test: Growth inhibition of human NCI-H226 cells after 48 hrs by cell counting analysis
[43] = system: MDA-MB-468; test: Growth inhibition of human MDA-MB-468 cells after 48 hrs by cell counting analysis
[44] = system: SF-268; test: Growth inhibition of human SF268 cells after 48 hrs by cell counting analysis
[45] = system: SW-620; test: Growth inhibition of human SW620 cells after 48 hrs by cell counting analysis
[46] = system: MCF7; test: Growth inhibition of human MCF7 cells after 48 hrs by cell counting analysis
[47] = system: SK-MEL-5; test: Growth inhibition of human SK-MEL-5 cells after 48 hrs by cell counting analysis
[48] = system: SNB-19; test: Growth inhibition of human SNB19 cells after 48 hrs by cell counting analysis
[49] = system: RPMI-8226; test: Growth inhibition of human RPMI8226 cells after 48 hrs by cell counting analysis
[50] = system: BT-549; test: Growth inhibition of human BT549 cells after 48 hrs by cell counting analysis
[51] = system: Malme-3M; test: Growth inhibition of human MALME-3M cells after 48 hrs by cell counting analysis
[52] = system: NCI-H522; test: Growth inhibition of human NCI-H522 cells after 48 hrs by cell counting analysis
[53] = system: HL-60; test: Growth inhibition of human HL60 cells after 48 hrs by cell counting analysis
[54] = system: ACHN; test: Growth inhibition of human ACHN cells after 48 hrs by cell counting analysis

## O=C(CN1CCN(c2ccccc2)CC1)Nc1nc(-c2ccc(Cl)cc2)cs1
[1]
  growth inhibition (GI): <10%
[2]
  growth inhibition (GI): 34.4%
[3]
  growth inhibition (GI): <10%
[4]
  growth inhibition (GI): <10%
[5]
  growth inhibition (GI): <10%
[6]
  growth inhibition (GI): <10%
[7]
  growth inhibition (GI): <10%
[8]
  growth inhibition (GI): <10%
[9]
  growth inhibition (GI): <10%
[10]
  growth inhibition (GI): 12.7%
[11]
  growth inhibition (GI): <10%
[12]
  growth inhibition (GI): <10%
[13]
  growth inhibition (GI): <10%
[14]
  growth inhibition (GI): <10%
[15]
  growth inhibition (GI): <10%
[16]
  growth inhibition (GI): 60.2%
[17]
  growth inhibition (GI): <10%
[18]
  growth inhibition (GI): 10.4%
[19]
  growth inhibition (GI): <10%
[20]
  growth inhibition (GI): <10%
[21]
  growth inhibition (GI): <10%
[22]
  growth inhibition (GI): <10%
[23]
  growth inhibition (GI): <10%
[24]
  growth inhibition (GI): <10%
[25]
  growth inhibition (GI): <10%
[26]
  growth inhibition (GI): <10%
[27]
  growth inhibition (GI): 21.1%
[28]
  growth inhibition (GI): 16.4%
[29]
  growth inhibition (GI): <10%
[30]
  growth inhibition (GI): <10%
[31]
  growth inhibition (GI): 20.3%
[32]
  growth inhibition (GI): <10%
[33]
  growth inhibition (GI): 19%
[34]
  growth inhibition (GI): <10%
[35]
  growth inhibition (GI): <10%
[36]
  growth inhibition (GI): <10%
[37]
  growth inhibition (GI): <10%
[38]
  growth inhibition (GI): <10%
[39]
  growth inhibition (GI): <10%
[40]
  growth inhibition (GI): <10%
[41]
  growth inhibition (GI): <10%
[42]
  growth inhibition (GI): <10%
[43]
  growth inhibition (GI): <10%
[44]
  growth inhibition (GI): <10%
[45]
  growth inhibition (GI): <10%
[46]
  growth inhibition (GI): <10%
[47]
  growth inhibition (GI): 11.7%
[48]
  growth inhibition (GI): <10%
[49]
  growth inhibition (GI): <10%
[50]
  growth inhibition (GI): <10%
[51]
  growth inhibition (GI): <10%
[52]
  growth inhibition (GI): <10%
[53]
  growth inhibition (GI): <10%
[54]
  growth inhibition (GI): <10%

## Cc1ccc(-c2csc(NC(=O)CN3CCN(C)CC3)n2)cc1
[1]
  growth inhibition (GI): <10%
[2]
  growth inhibition (GI): 19.9%
[3]
  growth inhibition (GI): <10%
[4]
  growth inhibition (GI): <10%
[5]
  growth inhibition (GI): <10%
[6]
  growth inhibition (GI): <10%
[7]
  growth inhibition (GI): <10%
[8]
  growth inhibition (GI): <10%
[9]
  growth inhibition (GI): 12%
[10]
  growth inhibition (GI): <10%
[11]
  growth inhibition (GI): 13.4%
[12]
  growth inhibition (GI): <10%
[13]
  growth inhibition (GI): <10%
[14]
  growth inhibition (GI): <10%
[15]
  growth inhibition (GI): <10%
[16]
  growth inhibition (GI): <10%
[17]
  growth inhibition (GI): <10%
[18]
  growth inhibition (GI): <10%
[19]
  growth inhibition (GI): <10%
[20]
  growth inhibition (GI): <10%
[21]
  growth inhibition (GI): <10%
[22]
  growth inhibition (GI): <10%
[23]
  growth inhibition (GI): <10%
[24]
  growth inhibition (GI): <10%
[25]
  growth inhibition (GI): <10%
[26]
  growth inhibition (GI): <10%
[27]
  growth inhibition (GI): <10%
[28]
  growth inhibition (GI): <10%
[29]
  growth inhibition (GI): 11.4%
[30]
  growth inhibition (GI): <10%
[31]
  growth inhibition (GI): <10%
[32]
  growth inhibition (GI): <10%
[33]
  growth inhibition (GI): <10%
[34]
  growth inhibition (GI): <10%
[35]
  growth inhibition (GI): <10%
[36]
  growth inhibition (GI): 42.2%
[37]
  growth inhibition (GI): <10%
[38]
  growth inhibition (GI): <10%
[39]
  growth inhibition (GI): 34.2%
[40]
  growth inhibition (GI): <10%
[41]
  growth inhibition (GI): 10.4%
[42]
  growth inhibition (GI): <10%
[43]
  growth inhibition (GI): <10%
[44]
  growth inhibition (GI): <10%
[45]
  growth inhibition (GI): <10%
[46]
  growth inhibition (GI): 12.7%
[47]
  growth inhibition (GI): <10%
[48]
  growth inhibition (GI): <10%
[49]
  growth inhibition (GI): <10%
[50]
  growth inhibition (GI): 12.8%
[51]
  growth inhibition (GI): <10%
[52]
  growth inhibition (GI): <10%
[53]
  growth inhibition (GI): <10%
[54]
  growth inhibition (GI): <10%

## Cn1cc(NC(=O)c2cc(NC(=O)CNC(=N)N)cn2C)cc1C(=O)NCCC(=N)N [NETROPSIN]
[1]
  growth inhibition (GI): 11.1%
[2]
  growth inhibition (GI): 30.6%
[3]
  growth inhibition (GI): <10%
[4]
  growth inhibition (GI): 13.9%
[5]
  growth inhibition (GI): <10%
[6]
  growth inhibition (GI): <10%
[7]
  growth inhibition (GI): 10.8%
[8]
  growth inhibition (GI): 10.3%
[9]
  growth inhibition (GI): 28.9%
[10]
  growth inhibition (GI): 10.9%
[11]
  growth inhibition (GI): 33.2%
[12]
  growth inhibition (GI): <10%
[13]
  growth inhibition (GI): <10%
[14]
  growth inhibition (GI): <10%
[15]
  growth inhibition (GI): <10%
[16]
  growth inhibition (GI): <10%
[17]
  growth inhibition (GI): <10%
[18]
  growth inhibition (GI): 17.4%
[19]
  growth inhibition (GI): <10%
[20]
  growth inhibition (GI): <10%
[21]
  growth inhibition (GI): <10%
[22]
  growth inhibition (GI): <10%
[23]
  growth inhibition (GI): 15.3%
[24]
  growth inhibition (GI): <10%
[25]
  growth inhibition (GI): <10%
[26]
  growth inhibition (GI): <10%
[27]
  growth inhibition (GI): 17.8%
[28]
  growth inhibition (GI): 10.7%
[29]
  growth inhibition (GI): 25.1%
[30]
  growth inhibition (GI): 17%
[31]
  growth inhibition (GI): 29%
[32]
  growth inhibition (GI): <10%
[33]
  growth inhibition (GI): 25.2%
[34]
  growth inhibition (GI): <10%
[35]
  growth inhibition (GI): 14.4%
[36]
  growth inhibition (GI): 29.8%
[37]
  growth inhibition (GI): 19.5%
[38]
  growth inhibition (GI): <10%
[39]
  growth inhibition (GI): 23.4%
[40]
  growth inhibition (GI): <10%
[41]
  growth inhibition (GI): <10%
[42]
  growth inhibition (GI): 14.5%
[43]
  growth inhibition (GI): 25.7%
[44]
  growth inhibition (GI): <10%
[45]
  growth inhibition (GI): <10%
[46]
  growth inhibition (GI): 13.7%
[47]
  growth inhibition (GI): 23.7%
[48]
  growth inhibition (GI): 10.5%
[49]
  growth inhibition (GI): 28.9%
[50]
  growth inhibition (GI): 12.9%
[51]
  growth inhibition (GI): 12.4%
[52]
  growth inhibition (GI): 28.2%
[53]
  growth inhibition (GI): 12.6%
[54]
  growth inhibition (GI): <10%
